Results: publication PMC12675575, “A BRET biosensor for measuring uncompetitive engagement of PRMT5 complexes in cells” (Nature Communications, 2025)
Several values for one entry are separate records, joined by “and”; a condition that tells them apart may be missing. Equal entries are not always repeated. Where two headings read alike, the source gives them in different places.

Columns and labels:
NL-PRMT5 with WDR77 = molecular target: T1, NL-PRMT5 with WDR77 (Homo sapiens, UniProt O14744); assay: MRTX1719 kinetic washout (residence time) NanoBRET experiment in HEK293 cells; assay type: cell-based; details: 100uM MTA
T1 construct: host or cells: HEK293
Description: On the next day, cells were resuspended in a 15 mL falcon tube and adjusted to 2 × 10^5 cells/mL in assay medium (OptiMEM with 1% FBS). […] After incubation, cells were centrifuged at 300 × g for 5 min, medium was aspirated and cells were washed with pre-warmed assay medium, centrifuged again and adjusted to 2 × 10^5 cells/mL. For the full occupancy control, MTA and compound concentrations were maintained. 34 μL of cells were added per well in a seeded into 96-well non-binding surface-treated plates (Corning), followed by addition of 36 μL of Complete 2x Substrate (prepared by combining Nano-Glo Substrate and Extracellular NanoLuc Inhibitor in Opti-MEM, according to the manufacturer’s protocol (Promega)). Then, 2 μL of ETP CBH-002 at a final concentration of 30 nM were added before immediate readout at the PheraSTAR FSX for 6 h. Readout and analysis were conducted as described earlier.

NLuc-PRMT5 = NLuc-PRMT5 (Homo sapiens, UniProt O14744); assay: BRET probe sensitivity to exogenous MTA in live HEK293 cells expressing NLuc-PRMT5; assay type: cell-based; parameters: host or cells: HEK293 (live cells; digitonin lysate for the SAM titration); details: for remaining activity at […] / remaining activity at 1000 µM: Log([MTA]), room temperature, read-out: Normalized BRET probe signal; for remaining activity at 1000 µM: uM 3.00
Description: To measure BRET probe sensitivity to both MAT2A inhibition and exogenous MTA in live cells, HEK293 cells were pre-treated with 30 nM CBH-002 and incubated at 37 °C and 5% CO2 for 2 h. For MAT2A inhibition, a 20 µM, 3-fold, 11 pt titration series of Compound A (Selleckchem) was added to wells. Cells were incubated either at 37 °C (Fig. 3D) or room temperature (Fig. S3D). Data were normalized using Eq. (2), where BRETMIN = instrument background (no CBH-002), and BRETMAX = 2 h vehicle treatment, and fit curves were generated using Eq. (1). For MTA sensitivity cells were treated with a 1 mM, 11 pt, 2-fold series of MTA (Sigma) and cells were incubated at room temperature for 2 h, reading in 15 min intervals. Data were normalized using Eq. (2), where BRETMIN = instrument background (no CBH-002), and BRETMAX = 2 h + vehicle treatment. Data were fit with Eq. (1).

T1 sequence (O14744 whole entry): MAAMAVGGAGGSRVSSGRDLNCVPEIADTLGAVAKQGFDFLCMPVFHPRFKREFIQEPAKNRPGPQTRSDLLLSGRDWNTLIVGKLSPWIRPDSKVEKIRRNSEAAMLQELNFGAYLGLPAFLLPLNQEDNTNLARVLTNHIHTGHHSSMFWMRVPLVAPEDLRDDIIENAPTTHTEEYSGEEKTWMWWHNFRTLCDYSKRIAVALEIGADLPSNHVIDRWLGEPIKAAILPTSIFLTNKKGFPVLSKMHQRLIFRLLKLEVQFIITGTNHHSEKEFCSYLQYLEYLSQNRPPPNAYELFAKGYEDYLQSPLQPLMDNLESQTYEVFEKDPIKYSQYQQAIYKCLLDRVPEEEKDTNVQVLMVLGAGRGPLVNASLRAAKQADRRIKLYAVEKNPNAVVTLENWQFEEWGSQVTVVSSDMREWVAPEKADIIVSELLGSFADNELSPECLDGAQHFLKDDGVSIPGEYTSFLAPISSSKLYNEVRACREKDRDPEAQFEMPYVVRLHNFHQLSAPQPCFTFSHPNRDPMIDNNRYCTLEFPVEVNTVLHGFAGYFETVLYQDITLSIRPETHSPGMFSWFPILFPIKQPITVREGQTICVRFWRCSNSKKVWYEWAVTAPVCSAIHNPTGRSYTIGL
T1 sequence (Q9BQA1 whole entry partner): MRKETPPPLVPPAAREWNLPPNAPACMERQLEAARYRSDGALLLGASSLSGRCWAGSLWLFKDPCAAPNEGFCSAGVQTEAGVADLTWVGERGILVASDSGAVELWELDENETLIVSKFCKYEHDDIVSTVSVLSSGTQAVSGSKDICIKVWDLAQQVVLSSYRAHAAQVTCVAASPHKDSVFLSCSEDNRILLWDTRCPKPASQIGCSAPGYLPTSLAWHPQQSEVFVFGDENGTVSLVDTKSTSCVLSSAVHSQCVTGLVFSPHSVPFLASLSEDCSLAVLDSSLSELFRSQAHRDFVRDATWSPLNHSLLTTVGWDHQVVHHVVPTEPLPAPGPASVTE
Chain of NLuc-PRMT5 (O14744 whole entry): as the sequence (O14744 whole entry) above
Chain of NLuc-PRMT5 (Q9BQA1 whole entry partner): as the sequence (Q9BQA1 whole entry partner) above

With CSC[C@H]1O[C@@H](n2cnc3c(N)ncnc32)[C@H](O)[C@@H]1O [MTA, methylthioadenosine] the “BRET, Figure S5I” value (NL-PRMT5 with WDR77; time 0 min) was 0.1105 and 0.1241 and 0.1192 and 0.1078 and 0.1088 and 0.1195 and 0.1138 and 0.1151, the “BRET, Figure S5I” value (NL-PRMT5 with WDR77; time 6 min) was 0.3119 and 0.3036 and 0.3616 and 0.2837 and 0.2843 and 0.315 and 0.3325 and 0.3197 and the “BRET, Figure S5I” value (NL-PRMT5 with WDR77; time 12 min) was 0.5293 and 0.4857 and 0.5913 and 0.4586 and 0.456 and 0.5044 and 0.5405 and 0.5123. For the same compound, the “BRET, Figure S5I” value (NL-PRMT5 with WDR77; time 18 min) was 0.7285 and 0.6611 and 0.7995 and 0.6306 and 0.6158 and 0.6735 and 0.7234 and 0.6889, the “BRET, Figure S5I” value (NL-PRMT5 with WDR77; time 24 min) was 0.8959 and 0.8098 and 0.9637 and 0.7786 and 0.7595 and 0.8227 and 0.869 and 0.8404 and the “BRET, Figure S5I” value (NL-PRMT5 with WDR77; time 30 min) was 1.03 and 0.937 and 1.09 and 0.9086 and 0.8803 and 0.9486 and 0.9887 and 0.9612. The “BRET, Figure S5I” value (NL-PRMT5 with WDR77; time 36 min) was 1.134 and 1.042 and 1.191 and 1.015 and 0.9796 and 1.049 and 1.086 and 1.061, the “BRET, Figure S5I” value (NL-PRMT5 with WDR77; time 42 min) was 1.201 and 1.125 and 1.257 and 1.0947 and 1.057 and 1.127 and 1.168 and 1.1428 and the “BRET, Figure S5I” value (NL-PRMT5 with WDR77; time 48 min) was 1.264 and 1.1938 and 1.301 and 1.164 and 1.1261 and 1.183 and 1.221 and 1.192. The “BRET, Figure S5I” value (NL-PRMT5 with WDR77; time 54 min) was 1.305 and 1.245 and 1.342 and 1.215 and 1.178 and 1.2272 and 1.267 and 1.255, the “BRET, Figure S5I” value (NL-PRMT5 with WDR77; time 60 min) was 1.34 and 1.2815 and 1.366 and 1.252 and 1.226 and 1.27 and 1.304 and 1.278 and the “BRET, Figure S5I” value (NL-PRMT5 with WDR77; time 66 min) was 1.37 and 1.322 (2×) and 1.406 and 1.285 and 1.248 and 1.298 and 1.329. For the same compound, the “BRET, Figure S5I” value (NL-PRMT5 with WDR77; time 72 min) was 1.398 and 1.341 and 1.428 and 1.319, the remaining activity at […] (NLuc-PRMT5; HEK293, 0.5 h, uM 0.29, Time (min) 30) was 98.1% and the remaining activity at […] (NLuc-PRMT5; HEK293, 0.5 h, uM 0.59, Time (min) 30) was 97.9%. For the same compound, the remaining activity at […] (NLuc-PRMT5; HEK293, 0.5 h, uM 0.89, Time (min) 30) was 99.1%, the remaining activity at […] (NLuc-PRMT5; HEK293, 0.5 h, uM 1.19, Time (min) 30) was 97.4% and the remaining activity at […] (NLuc-PRMT5; HEK293, 0.5 h, uM 1.49, Time (min) 30) was 95.2%. The remaining activity at […] (NLuc-PRMT5; HEK293, 0.5 h, uM 1.80, Time (min) 30) was 93%, the remaining activity at […] (NLuc-PRMT5; HEK293, 0.5 h, uM 2.10, Time (min) 30) was 90.2% and the remaining activity at […] (NLuc-PRMT5; HEK293, 0.5 h, uM 2.40, Time (min) 30) was 87.8%. For the same compound, the remaining activity at […] (NLuc-PRMT5; HEK293, 0.5 h, uM 2.70, Time (min) 30) was 86.4%, the remaining activity at 1000 µM (NLuc-PRMT5; HEK293, 0.5 h, Time (min) 30) was 85.4% and the remaining activity at […] (NLuc-PRMT5; HEK293, 1 h, uM 0.29, Time (min) 60) was 99.2%. The remaining activity at […] (NLuc-PRMT5; HEK293, 1 h, uM 0.59, Time (min) 60) was 99.7%, the remaining activity at […] (NLuc-PRMT5; HEK293, 1 h, uM 0.89, Time (min) 60) was 98.1% and the remaining activity at […] (NLuc-PRMT5; HEK293, 1 h, uM 1.19, Time (min) 60) was 96.8%. It also gave a remaining activity at […] (NLuc-PRMT5; HEK293, 1 h, uM 1.49, Time (min) 60) of 94.8%, a remaining activity at […] (NLuc-PRMT5; HEK293, 1 h, uM 1.80, Time (min) 60) of 91.1% and a remaining activity at […] (NLuc-PRMT5; HEK293, 1 h, uM 2.10, Time (min) 60) of 87.7%. The remaining activity at […] (NLuc-PRMT5; HEK293, 1 h, uM 2.40, Time (min) 60) was 84.6%, the remaining activity at […] (NLuc-PRMT5; HEK293, 1 h, uM 2.70, Time (min) 60) was 79.9% and the remaining activity at 1000 µM (NLuc-PRMT5; HEK293, 1 h, Time (min) 60) was 78.1%. For the same compound, the remaining activity at […] (NLuc-PRMT5; HEK293, 2 h, uM 0.29, Time (min) 120) was 98.3%, the remaining activity at […] (NLuc-PRMT5; HEK293, 2 h, uM 0.59, Time (min) 120) was 98.5% and the remaining activity at […] (NLuc-PRMT5; HEK293, 2 h, uM 0.89, Time (min) 120) was 97.2%. It also gave a remaining activity at […] (NLuc-PRMT5; HEK293, 2 h, uM 1.19, Time (min) 120) of 96%, a remaining activity at […] (NLuc-PRMT5; HEK293, 2 h, uM 1.49, Time (min) 120) of 93.7% and a remaining activity at […] (NLuc-PRMT5; HEK293, 2 h, uM 1.80, Time (min) 120) of 90%. For the same compound, the remaining activity at […] (NLuc-PRMT5; HEK293, 2 h, uM 2.10, Time (min) 120) was 85.1%, the remaining activity at […] (NLuc-PRMT5; HEK293, 2 h, uM 2.40, Time (min) 120) was 81.7% and the remaining activity at […] (NLuc-PRMT5; HEK293, 2 h, uM 2.70, Time (min) 120) was 75.7%. For the same compound, the remaining activity at 1000 µM (NLuc-PRMT5; HEK293, 2 h, Time (min) 120) was 72.8% and the “Time to plateau of BRET inhibition” value (NLuc-PRMT5; live HEK293, room temperature) was ~ 2 h.
